How the values were obtained:
[1] = system: GCK (MAP4K3); assay: Dundee kinase screen re-test (standard format and 4 hour pre-incubation); assay type: biochemical
Protocol: (§1) Prior to determining its cellular activity, we carried out a screen to assess its selectivity against a panel of 131 protein kinases under conditions that would not distinguish between a reversible or irreversible mode of action. […] These 13 kinases and 29 additional kinases, selected for their known sensitivity to other inhibitors within the purine series, were then tested in a modified screening format in which the assay was repeated following a 4-hr pre-incubation (Table S3B). […] However, conformational flexibility around the active site may promote such an interaction with a residue from another part of the structure ([Martin et al., 2012]).
Table S3, Related to Figure 4. NCL-0006300 protein kinase selectivity. […]
(B) Selected kinases were re-tested in the Dundee kinase screen against NU6300 at a single concentration of 0.5 µM both in the standard assay format and following a 4 hour pre-incubation in the presence of NU6300. Kinases which have very low activity after the 4 hour incubation so that results might not be wholly reliable are boxed in salmon. Kinases where the activity after a 4 hour pre-incubation is < 50% that in the standard assay format are highlighted in red.

[2] = target: MPSK1 (Homo sapiens, UniProt O75716); assay: Dundee protein kinase screen; assay type: biochemical; details: MPSK1, 1µM; read-out: %Remaining activity at 1µM NU6300
MPSK1, sequence (O75716 whole entry): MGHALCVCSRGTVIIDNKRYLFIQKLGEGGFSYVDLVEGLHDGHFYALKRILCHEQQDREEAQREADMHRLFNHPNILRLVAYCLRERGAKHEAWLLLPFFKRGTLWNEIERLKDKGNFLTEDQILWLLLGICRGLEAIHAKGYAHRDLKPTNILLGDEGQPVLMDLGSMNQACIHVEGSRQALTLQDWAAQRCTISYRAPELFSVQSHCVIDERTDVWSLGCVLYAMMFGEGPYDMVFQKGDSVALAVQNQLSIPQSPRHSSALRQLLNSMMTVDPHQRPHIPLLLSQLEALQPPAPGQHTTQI
Protocol: as §1
(§2) Table S3, Related to Figure 4. NCL-0006300 protein kinase selectivity. (A) NU6300 was tested at a single concentration of 1µM against 131 protein kinases present in a Dundee protein kinase screen (Bain et al., 2007). Values given are % activity remaining and are the average of duplicate measurements: 0-25% (red), 26-50% (yellow), 51-80% […]
(§3) (black) and above 81% (green). […]

[3] = target: T1, PDK1 (Homo sapiens, UniProt O15530); assay: Dundee protein kinase screen; assay type: biochemical; details: PDK1, 1µM; read-out: %Remaining activity at 1µM NU6300
T1 sequence (O15530 1-556): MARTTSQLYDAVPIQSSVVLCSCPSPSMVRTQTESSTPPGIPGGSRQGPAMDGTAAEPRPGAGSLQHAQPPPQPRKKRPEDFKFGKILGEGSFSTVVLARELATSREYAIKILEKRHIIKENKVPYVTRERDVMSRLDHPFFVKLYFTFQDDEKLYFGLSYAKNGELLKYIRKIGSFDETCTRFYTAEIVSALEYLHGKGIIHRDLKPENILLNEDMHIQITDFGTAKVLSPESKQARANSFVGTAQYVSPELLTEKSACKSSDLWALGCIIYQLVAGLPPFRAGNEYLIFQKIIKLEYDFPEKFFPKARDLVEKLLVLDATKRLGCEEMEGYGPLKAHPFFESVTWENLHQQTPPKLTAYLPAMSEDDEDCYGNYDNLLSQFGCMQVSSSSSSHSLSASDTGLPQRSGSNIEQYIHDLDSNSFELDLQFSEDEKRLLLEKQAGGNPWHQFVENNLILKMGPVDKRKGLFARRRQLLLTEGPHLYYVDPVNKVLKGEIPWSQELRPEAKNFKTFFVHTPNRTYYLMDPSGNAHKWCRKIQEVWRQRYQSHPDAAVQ
Protocol: as §1, §2, §3

[4] = target: PKCα (Homo sapiens, UniProt P17252); assay: Dundee protein kinase screen; assay type: biochemical; details: read-out: %Remaining activity at 1µM NU6300
Protocol: as §1, §2, §3

[5] = target: T2, immobilized CDK2/cyclin A (Homo sapiens, UniProt P24941); assay: SPR kinetics of non-covalent complex; assay type: binding; details: 1:1 model, 25 °C
T2 construct: made in house; host or cells: Escherichia coli
Excerpt: To determine the kinetics of the interactions of NU6310 and NU6300 with immobilized CDK2/cyclin A, the sensor surface was exposed to five different concentrations of each inhibitor for different contact times (Figures 2A and 2B). On these relatively short time scales (compared with the experiment above), the interactions between CDK2 and either NU6300 or NU6310 appeared reversible, since the sensorgrams were well described by a simple 1:1 model and the dissociation was similar irrespective of the contact time. It enabled the estimation of the kinetic constants (kon, koff, KD) for the formation of the non-covalent complex. […] The formation of a covalent complex could not be detected on the time scales of these experiments, and the injection times could not be extended further for practical reasons.
Figure 2 NU6300 Is a Covalent Inhibitor of CDK2 (A and B) SPR sensorgrams for the interaction between immobilized CDK2 and NU6310 and NU6300. (A) The effects of time on the interaction were evaluated by comparing the dissociation rates for the compounds injected at 10 μM for different contact times (30, 60, 120, and 240 s). Sensorgrams are aligned with respect to the start of the dissociation. (B) The determination of rate constants was based on global analysis of a set of sensorgrams recorded for a concentration series (39, 156, 625, 2,500, and 10,000 nM) of the compounds. Theoretical curves of a fitted 1:1 Langmuir interaction model (black) are overlaid on the experimental traces. (C) Phosphorylation of GST-Rb by CDK2/cyclin A. The slower-migrating band is hyperphosphorylated GST-Rb (Phospho-Rb). Time points (in minutes) are shown above. (D) Time-dependent inhibition of CDK2/cyclin A. Activity was measured using the ADP-Glo assay format against a peptide of sequence HHASPRK. Error bars indicate SD of the measurements. See also Figure S1 and Table S1.
The interaction experiments were performed using SPR biosensor technology, with Biacore S51 and T100 instruments, CM5 biosensor chips, and standard reagents (GE Healthcare). Full details can be found in the Supplemental Experimental Procedures. […]
CDK2 was immobilized to activated carboxylated dextran surfaces by amine coupling to give surface densities of 6000-25000 RU. All interaction experiments were performed at 25 °C in 10 mM phosphate pH 7.4, 137 mM NaCl, 3 mM KCl, with addition of 0.05 % Tween 20, 5 % (v/v) DMSO, and at a flow rate of 90 or 30 µL/min. […]
Sensorgrams or extracted report points from reference surfaces and blank injections were subtracted from the raw data prior to data analysis, using Biacore T100 evaluation software 2.0. A 1:1 interaction model was fitted globally to sets of sensorgrams recorded with different contact times and at different inhibitor concentrations in multi-cycle experiments. Kinetic parameters were determined from sensorgrams with 30 s and 60 s contact time. Standard deviations were based on at least 4 measurement series.
CDK2/cyclin A was mixed with a freshly prepared solution of NU6300 to achieve DMSO and inhibitor concentrations of 2% and 2 mM respectively, concentrated by ultrafiltration to a CDK2/cyclin A final concentration of circa 5 mg ml-1, and then crystallized as described (Davies et al., 2002). Briefly, crystals were grown from a mother liquor containing 0.6–0.8 M KCl, 0.9–1.2 M (NH4)2SO4, and 100 mM HEPES (pH 7.0). Sitting drops were set up with a 1:1 ratio of protein to reservoir solution in a total initial volume of 0.5 or 1.0 µl.
Before data collection, crystals were briefly immersed in cryo-protectant (1 M sodium

Row | Compound | %Remaining activity at 0.5µM NU6300 - 4hr RT preincubation ([1]; 0.5µM, 4hr RT preincubation) [%] | %Remaining activity at 0.5µM NU6300 - Usual assay format ([1]; 0.5µM, usual format) [%] | additional loss of activity after pre-incubation ([1]; 4-hr pre-incubation vs usual format, 0.5 µM) [%] | remaining activity at 1 µM [2] [%] | remaining activity at 1 µM [3] [%] | remaining activity at 1 µM [4] [%] | Kd [5] [µM] | koff [5] [s⁻¹] | kon [5] [M⁻¹ s⁻¹]
1 | C=CS(=O)(=O)c1ccc(Nc2nc(OCC3CCCCC3)c3nc[nH]c3n2)cc1 [NU6300, 6-(cyclohexylmethoxy)-N-(4-(vinylsulfonyl)phenyl)-9H-purin-2-amine] | 29 | 89 | > 50 | 92 | 29 | 86 | 1.31 ± 0.18 | 0.0713 ± 0.0063 | 54500 ± 7.2e+08
2 | CCS(=O)(=O)c1ccc(Nc2nc(OCC3CCCCC3)c3nc[nH]c3n2)cc1 [NU6310, 6-(cyclohexylmethoxy)-N-(4-(ethylsulfonyl)phenyl)-9H-purin-2-amine] |  |  |  |  |  |  | 0.716 ± 0.012 | 0.0809 ± 0.007 | 113000 ± 1e+09
